According to patent US10912803B2, “Probiotic and polyphenol against neurodegeneration” (NESTEC S.A., priority 2012, dated 2021):

How the values were obtained:
[1] = molecular target: T1, size exclusion purified monomeric Aβ42 (LMW) (Homo sapiens, UniProt P05067); test: Assay 1: Targeting monomeric Aβ assay, ThT fluorescence; type: biochemical; conditions: for LMW (effects of compounds compared to control without compounds) - signal intensity: 37° C; for Inhibition of Aβ fibrillization: LMW, ratio and time not stated
T1 construct: size exclusion purified monomeric Aβ42 (LMW)
T1 sequence (P05067 672-713 limits assumed): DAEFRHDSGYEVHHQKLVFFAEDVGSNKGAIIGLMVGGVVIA
Protocol: Assay 1: Targeting Monomeric Aβ Assay (Timeframe 24-48 Hrs) (See FIG. 1):
In this assay, it was started with size exclusion purified monomeric Aβ42 (LMW). This was incubated with a compound of interest (C) at 37° C. The extent of aggregation was then assessed at 24 and 48 hrs by Thioflavin T (ThT) fluorescence. […] However, it is difficult to infer from this assay alone at which point along the amyloid formation pathway the compound acts, i.e., does interfere with monomer to protofibrils transition or block protofibrils to fibril transition.
(§1) Aβ42 LMW and PF were used at a final concentration of […] and incubated alone or with the compounds at a ratio of 1:0.5 or 1:2.

[2] = molecular target: T2, size exclusion purified protofibrillar mixture of Aβ42 (PF) (Homo sapiens, UniProt P05067); test: Assay 2: Targeting protofibrillar Aβ assay, ThT fluorescence; type: biochemical; conditions: for PF (effects of compounds compared to control without compounds) - signal intensity: 37° C; for Inhibition of Aβ fibrillization: PF, ratio and time not stated
T2 construct: size exclusion purified protofibrillar mixture of Aβ42 (PF)
T2 sequence (P05067 672-713 limits assumed): as above
Protocol: Assay 2: Targeting Protofibrillar Aβ Assay (Timeframe 24-48 Hrs) (See FIGS. 1 and 2A-2D):
In this assay it was started with a size exclusion purified protofibrillar mixture of Aβ42 (PF). This was incubated with the compound of interest (C) at 37° C. The extent of aggregation was then assessed at 24 and 48 hrs by Thioflavin T (ThT) fluorescence. […] This could occur via at least two mechanisms; i) blocking protofibrils to fibril transition or ii) inducing the dissociation/disaggregation of protofibrils.
as §1

[3] = 24 h, ratio Aβ42:compound 1:0.5, Aβ42 10 pM

| Compound | LMW (effects of compounds compared to control without compounds) - signal intensity ([1]; 24 h, ratio 1:2, Aβ42 10 pM) | LMW (effects of compounds compared to control without compounds) - signal intensity [1, 3] | LMW (effects of compounds compared to control without compounds) - signal intensity ([1]; 48 h, ratio 1:0.5, Aβ42 10 pM) | LMW (effects of compounds compared to control without compounds) - signal intensity ([1]; 48 h, ratio 1:2, Aβ42 10 pM) | Inhibition of Aβ fibrillization [1] | PF (effects of compounds compared to control without compounds) - signal intensity ([2]; 24 h, ratio 1:0.5, Aβ42 10 pM) | PF (effects of compounds compared to control without compounds) - signal intensity ([2]; 24 h, ratio 1:2, Aβ42 10 pM) | PF (effects of compounds compared to control without compounds) - signal intensity ([2]; 48 h, ratio 1:0.5, Aβ42 10 pM) | PF (effects of compounds compared to control without compounds) - signal intensity ([2]; 48 h, ratio 1:2, Aβ42 10 pM) | Inhibition of Aβ fibrillization [2] |
| --- | --- | --- | --- | --- | --- | --- | --- | --- | --- | --- |
| O=C(/C=C/c1ccc(O)c(O)c1)O[C@@H](C(=O)O)[C@@H](O)C(=O)O [NP7, Caftaric acid] | Decrease | Decrease | Decrease | Decrease | 42% | Decrease | Decrease | Decrease | Decrease | 35% |
| Chicoric acid [NP5] | Decrease | Decrease | Decrease | Decrease | 50% | Decrease | Decrease | Decrease | Decrease | 41% |
